Measured values as given in ChEMBL document CHEMBL3045426, “Synthesis, Antiviral and Antibacterial Activities of Isatin Mannich Bases” (Med Chem Res, 2005).
≈ marks a conversion by molar mass, not a printed value.

What was measured:
Proteus vulgaris = assay: Antimicrobial activity against Proteus vulgaris after 18 to 20 hr by agar dilution method; format: functional
Vero = assay: Cytotoxicity against Chlorocebus aethiops (African green monkey) Vero cells up to 62.5 ug/ml; format: cell-based; conditions: chlorocebus sabaeus
Salmonella typhimurium = assay: Antimicrobial activity against Salmonella enterica subsp. enterica serovar Typhimurium after 18 to 20 hr by agar dilution method; format: functional
Shigella boydii = assay: Antimicrobial activity against Shigella boydii after 18 to 20 hr by agar dilution method; format: functional
Vibrio mimicus = assay: Antimicrobial activity against Vibrio mimicus after 18 to 20 hr by agar dilution method; format: functional
Vibrio fluvialis = assay: Antimicrobial activity against Vibrio fluvialis after 18 to 20 hr by agar dilution method; format: functional
Salmonella enteritidis = assay: Antimicrobial activity against Salmonella enterica subsp. enterica serovar Enteritidis after 18 to 20 hr by agar dilution method; format: functional
Plesiomonas = assay: Antimicrobial activity against Plesiomonas after 18 to 20 hr by agar dilution method; format: functional
Vibrio parahaemolyticus = assay: Antimicrobial activity against Vibrio parahaemolyticus after 18 to 20 hr by agar dilution method; format: functional
Klebsiella pneumoniae [1] = assay: Antimicrobial activity against Klebsiella pneumoniae after 18 to 20 hr by agar dilution method; format: functional
Vibrio cholerae [2] = assay: Antimicrobial activity against Vibrio cholerae 01 after 18 to 20 hr by agar dilution method; format: functional; conditions: 1
[3] = tested on: Mycobacterium tuberculosis; assay: Antimycobacterial activity against Mycobacterium tuberculosis H37Rv ATCC 27294 at 6.25 ug/ml by MABA; format: functional
Salmonella paratyphi = assay: Antimicrobial activity against Salmonella enterica subsp. enterica serovar Paratyphi A after 18 to 20 hr by agar dilution method; format: functional
Klebsiella pneumoniae [4] = assay: Antimicrobial activity against Klebsiella pneumoniae subsp. ozaenae after 18 to 20 hr by agar dilution method; format: functional
Edwardsiella tarda = assay: Antimicrobial activity against Edwardsiella tarda after 18 to 20 hr by agar dilution method; format: functional
Shigella sonnei = assay: Antimicrobial activity against Shigella sonnei after 18 to 20 hr by agar dilution method; format: functional
Proteus mirabilis = assay: Antimicrobial activity against Proteus mirabilis after 18 to 20 hr by agar dilution method; format: functional
Escherichia coli [5] = assay: Antimicrobial activity against Escherichia coli NCTC 10418 after 18 to 20 hr by agar dilution method; format: functional
Priestia megaterium = assay: Antimicrobial activity against Bacillus megaterium after 18 to 20 hr by agar dilution method; format: functional
Pseudomonas aeruginosa = assay: Antimicrobial activity against Pseudomonas aeruginosa after 18 to 20 hr by agar dilution method; format: functional
[6] = tested on: Mycobacterium tuberculosis; assay: Antimycobacterial activity against Mycobacterium tuberculosis H37Rv ATCC 27294; format: functional
Enterobacter = assay: Antimicrobial activity against Enterobacter after 18 to 20 hr by agar dilution method; format: functional
[7] = Cytotoxicity against Homo sapiens (human) CEM cells after 5 days by MTT assay; format: cell-based; conditions: CEM cells (CCRF-CEM)
Salmonella typhi = assay: Antimicrobial activity against Salmonella enterica subsp. enterica serovar Typhi after 18 to 20 hr by agar dilution method; format: functional
Staphylococcus aureus = assay: Antimicrobial activity against Staphylococcus aureus after 18 to 20 hr by agar dilution method; format: functional
[8] = tested on: Human immunodeficiency virus 1; assay: Antiviral activity against Human immunodeficiency virus 1 IIIB infected CEM cells assessed as inhibition of virus-induced cytopathicity after 6 days by XTT assay; format: functional, organism-based; conditions: CCRF-CEM, 144 h
Vibrio cholerae [9] = assay: Antimicrobial activity against Vibrio cholerae 0139 after 18 to 20 hr by agar dilution method; format: functional; conditions: 139
Morganella morganii = assay: Antimicrobial activity against Morganella morganii after 18 to 20 hr by agar dilution method; format: functional
Citrobacter freundii = assay: Antimicrobial activity against Citrobacter freundii after 18 to 20 hr by agar dilution method; format: functional
[10] = tested on: Human immunodeficiency virus 1; assay: Antiviral activity against Human immunodeficiency virus 1 IIIB infected CEM cells assessed as protection against viral infection after 6 days by XTT assay; format: functional, CCRF-CEM; design: concentration or dose not given beside the values
Escherichia coli [11] = assay: Antibacterial activity against Escherichia coli NCTC 10418 infected in po dosed CF mouse compound administered 1 hr prior and 4 hr post infection; format: functional; conditions: NCTC 10418, po

Compound	MIC (Proteus vulgaris) [µg/mL]	MIC (Salmonella typhimurium) [µg/mL]	MIC (Shigella boydii) [µg/mL]	MIC (Vibrio mimicus) [µg/mL]	MIC (Vibrio fluvialis) [µg/mL]	MIC (Salmonella enteritidis) [µg/mL]	MIC (Plesiomonas) [µg/mL]	MIC (Vibrio parahaemolyticus) [µg/mL]	MIC (Klebsiella pneumoniae [1]) [µg/mL]	MIC (Vibrio cholerae [2]) [µg/mL]	MIC (Salmonella paratyphi) [µg/mL]	MIC (Klebsiella pneumoniae [4]) [µg/mL]	MIC (Edwardsiella tarda) [µg/mL]	MIC (Shigella sonnei) [µg/mL]	MIC (Proteus mirabilis) [µg/mL]	MIC (Priestia megaterium) [µg/mL]	MIC (Pseudomonas aeruginosa) [µg/mL]	MIC (Enterobacter) [µg/mL]	MIC (Salmonella typhi) [µg/mL]	MIC (Staphylococcus aureus) [µg/mL]	further results
COc1cc(Cc2cnc(/N=C3\C(=O)N(CN4CCN(c5c(F)cc6c(=O)c(C(=O)O)cn(C7CC7)c6c5F)CC4C)c4ccc(Cl)cc43)nc2N)cc(OC)c1OC (centres undefined)	0.0763 (≈ 0.092 µM)	0.0381 (≈ 0.0459 µM)	0.0381 (≈ 0.0459 µM)	0.019 (≈ 0.0229 µM)	0.019 (≈ 0.0229 µM)	0.019 (≈ 0.0229 µM)	0.0381 (≈ 0.0459 µM)	0.0763 (≈ 0.092 µM)	2.44 (≈ 2.94 µM)	0.61 (≈ 0.736 µM)	0.153 (≈ 0.184 µM)	0.0381 (≈ 0.0459 µM)	0.0763 (≈ 0.092 µM)	0.152 (≈ 0.183 µM)	0.0763 (≈ 0.092 µM)	0.019 (≈ 0.0229 µM)	0.019 (≈ 0.0229 µM)	0.019 (≈ 0.0229 µM)	0.019 (≈ 0.0229 µM)	0.019 (≈ 0.0229 µM)	Activity (Vero): Non-toxic; inhibition at 6.25 µg/mL [3]: 100%; MIC (Escherichia coli [5]): 0.0763 µg/mL (≈ 0.092 µM); MIC [6]: 3.13 µg/mL (≈ 3.77 µM); CC50 at 120 h [7]: 67 µg/mL (≈ 80.8 µM); EC50 [8]: > 67 µg/mL; MIC (Vibrio cholerae [9]): 0.153 µg/mL (≈ 0.184 µM); MIC (Morganella morganii): 0.0381 µg/mL (≈ 0.0459 µM); MIC (Citrobacter freundii): 0.0095 µg/mL (≈ 0.0115 µM); Activity [10]: 20.04%
O=C(O)c1cn(C2CC2)c2cc(N3CCNCC3)c(F)cc2c1=O [CIPROFLOXACIN]	0.04 (≈ 0.121 µM)	0.04 (≈ 0.121 µM)	0.04 (≈ 0.121 µM)	0.04 (≈ 0.121 µM)	0.04 (≈ 0.121 µM)	0.04 (≈ 0.121 µM)	0.04 (≈ 0.121 µM)	0.04 (≈ 0.121 µM)	0.04 (≈ 0.121 µM)	0.04 (≈ 0.121 µM)	0.04 (≈ 0.121 µM)	0.15 (≈ 0.453 µM)	0.04 (≈ 0.121 µM)	0.04 (≈ 0.121 µM)	0.04 (≈ 0.121 µM)	0.04 (≈ 0.121 µM)	0.15 (≈ 0.453 µM)	0.04 (≈ 0.121 µM)	0.04 (≈ 0.121 µM)	0.04 (≈ 0.121 µM)	ED50 (Escherichia coli [11]): 1.25 mg/kg; MIC (Vibrio cholerae [9]): 0.04 µg/mL (≈ 0.121 µM); MIC (Morganella morganii): 0.04 µg/mL (≈ 0.121 µM); MIC (Citrobacter freundii): 0.04 µg/mL (≈ 0.121 µM)
CCn1cc(C(=O)O)c(=O)c2cc(F)c(N3CCNC(C)C3)c(F)c21 (centres undefined) [LOMEFLOXACIN]	0.61 (≈ 1.74 µM)	4.88 (≈ 13.9 µM)	9.77 (≈ 27.8 µM)	1.22 (≈ 3.47 µM)	1.22 (≈ 3.47 µM)	19.5 (≈ 55.6 µM)	1.22 (≈ 3.47 µM)	39.1 (≈ 111 µM)	2.44 (≈ 6.94 µM)	0.02 (≈ 0.0569 µM)	0.61 (≈ 1.74 µM)	1.22 (≈ 3.47 µM)	4.88 (≈ 13.9 µM)	39.1 (≈ 111 µM)	2.44 (≈ 6.94 µM)	19.5 (≈ 55.6 µM)	4.88 (≈ 13.9 µM)	19.5 (≈ 55.6 µM)	9.77 (≈ 27.8 µM)	0.61 (≈ 1.74 µM)	MIC (Escherichia coli [5]): 0.61 µg/mL (≈ 1.74 µM); ED50 (Escherichia coli [11]): 1.87 mg/kg; MIC (Vibrio cholerae [9]): 2.44 µg/mL (≈ 6.94 µM); MIC (Morganella morganii): 1.22 µg/mL (≈ 3.47 µM); MIC (Citrobacter freundii): 19.5 µg/mL (≈ 55.6 µM)
